Experimental data reported in patent publication US20120028995A1, “NOVEL COMPOUNDS FOR MEDICAL USE AS PEPTIDASE EFFECTORS” (IMTM GMBH, priority 2010, published 2012).
Read-outs that look alike come from different tables or passages of the source.

Columns and labels:
[1] = target: T1, purified, recombinant human DPIV (Homo sapiens, UniProt P27487); assay: Inhibition of enzymatic activity of DPIV (fluorogenic substrate hydrolysis); format: biochemical; settings: highest test item concentration 25 μM
T1 construct: made in house; host or cells: Sf9 insect cells
Protocol: (§1) The inhibition of the enzymatic activity of DPIV and related enzymes was measured by using purified, recombinant human DPIV (purified from transfected Sf9 cells, final enzyme concentration approx. 1 nM) as well as purified, recombinant DP8 and DP9 (purchased from Biomol). The assay was performed in 0.05M TRIS/HCl puffer pH 7.5, supplemented with 0.05% Triton (v/v), 0.05% BSA (w/v), 2 mM MgCl2.
(§2) The enzymatic activity of DPIV was assessed by the hydrolysis of the fluorogenic substrates H-Gly-Pro-4-amino-7-methyl coumarine (abbreviation of fluorogenic group AMC; purchased from Bachem) or (Ala-Pro)2-Rhodamine 110 (abbreviation R110). The final substrate concentrations were 50 μM or 1 μM, respectively.
(§3) The assay was performed in white microtitre plates for fluorescence measurements. The test items, substrate and enzyme were diluted in assay buffer. The highest test item concentration used was 25 μM. For the calculation of IC50 values, at least 16 log 2-dilutions of each test item were analyzed. As controls, the DPIV activity in the absence of test items as well as the spontaneous hydrolysis of the substrate was determined.
(§4) The release of the fluorescent hydrolysis product AMC was measured at an excitation wavelength of 380 nm and an emission wavelength of 460 nm by using a microtitre fluorescence reader immediately after substrate addition as well as after 30, 60 and 120 min. The hydrolysis of the substrate (Ala-Pro)2-Rhodamine 110 was determined at an exitation wavelength of 488 nm and emission wavelength of 530 nm.

[2] = target: T2, aminopeptidase N (APN), purified recombinant human enzyme (Homo sapiens, UniProt P15144); assay: Inhibition of enzymatic activity of aminopeptidase N (fluorogenic substrate hydrolysis); format: biochemical; settings: highest test item concentration 25 μM
T2 construct: made in house; host or cells: ECV cells (transfected)
Protocol: The inhibition of the enzymatic activity of aminopeptidase N (APN) was measured by using purified, recombinant human enzyme (purified from transfected ECV cells, final enzyme concentration approx. 1 nM). […] The assay was performed in 0.05M TRIS/HCl puffer pH 7.5, supplemented with 0.05% Triton (v/v), 0.05% BSA (w/v), 2 mM MgCl2.
The aminopeptidase acitivities wer assessed by the hydrolysis of the fluorogenic substrates H-Ala-4-amino-7-methyl coumarine (abbreviation of fluorogenic group AMC; purchased from Bachem) or (Ala-)2-Rhodamine 110 (abbreviation R110). The final substrate concentrations were again 50 and 1 μM, respectively.
as §3
The release of the fluorescent hydrolysis products AMC and R110 was measured as described above for DPIV substrates.

[3] = test system: purified, recombinant DP8 and DP9; assay: Inhibition of enzymatic activity of DP8/9; format: biochemical; settings: highest test item concentration 25 μM
Protocol: as §1, §2, §3, §4

[4] = target: T3, cytosolic aminopeptidase (cAAP) purified from Jurkat cells (Homo sapiens, UniProt P55786); assay: Inhibition of enzymatic activity of cytosolic aminopeptidase (cAAP); format: biochemical; settings: highest test item concentration 25 μM; for IC50: read-out: meas. IC50 (cAAP)
T3 construct: The cytosolic aminopeptidase (cAAP) was purified from Jurkat cells; endogenous in cells; host or cells: Jurkat cells (enzyme purified from them)

T lymphocytes (T cells) = assay: Suppression of DNA synthesis of PHA-stimulated T lymphocytes; format: cell-based; settings: tritium thymidine incorporation, read-out: Supp. DNA Synt. T-cell IC50
Protocol: Peripheral blood mononuclear cells (PBMC) from healthy human volunteers were freshly isolated by density gradient centrifugation. T lymphocytes (T cells) were isolated from PBMC fractions via nylon wool adherence. Both cell populations were cultured in serum free lymphocyte medium (AIMV medium, Invitrogen) and stimulated by addition of 1 μg/ml Phytohemagglutinine for 48 hours in 96 well flat-bottom microtiter plates. Test compounds were added at concentration ranges from 0.1 up to 250 μM over the total assay period.
DNA synthesis of proliferating PBMC was assessed by incorporation of nucleotide analogue bromdesoxyuridine (BrdU) and subsequent detection of BrdU by ELISA technique (Cell Proliferation Biotrak™ ELISA system, GE Health Care) according to the protocol of the manufacturer. DNA synthesis of proliferating T cells was determined by incorporation of radio labelled tritium thymidine and subsequent radio detection.
Data output was based on raw data and calculation of relative proliferation response in relation to PHA-activated T cells in the absence of test compound (100% control). The IC50 value of proliferation suppression was assessed by graphical evaluation.

NHEK cells = assay: Inhibition of DNA synthesis and proliferation of normal human epidermal keratinocytes (NHEK); format: cell-based; settings: EGF-stimulated NHEK, BrdU incorporation, read-out: Supp. DNA Synt. NHEK IC50
Protocol: NHEK cells (primary cells from person) were purchased from PromoCell. For these assay the adherent cells were cultured in serum-free Keratinocyte Growth medium 2 supplemented with epidermal growth factor (EGF) and bovine pituitary extract for 48 hours in flat-bottom microtiter plates. EGF stimulates the DNA synthesis and proliferation of these cells. Test items were added in concentrations from 0.1 up to 100 μM.
The DNA synthesis was assessed by incorporation of bromdesoxyuridine (BrdU) and subsequent detection of BrdU by ELISA technique. Based on these raw data the relative proliferation response in relation to cells cultured in the absence of test compound (100% control) was calculated. IC50 values of proliferation suppression were assessed by computer-assisted graphical evaluation.

SZ95 cells = assay: Inhibition of DNA synthesis and proliferation of immortalized human sebocytes SZ95; format: cell-based; settings: EGF-stimulated SZ95 sebocytes, tritium thymidine incorporation, read-out: Supp. DNA Synt. SZ95 IC50
Protocol: The immortalized human sebocyte line SZ95 was provided by Prof. C Zouboulis [C C Zouboulis, H Seltmann, H Neitzel, C E Orfanos, Establishment and characterization of an immortalized human sebaceous gland cell line (SZ95). J. Invest. Dermatol. 113(6):1011-1020 (1999), the entire disclosure of which is incorporated by reference herein]. These adherent growing cells were cultured in serum-free Sebomed Complete (Biochrom). Recombinant EGF was added in order to stimulate DNA synthesis and proliferation of the SZ95 cells. Test items were added in concentrations from 0.1 up to 100 μM.
The DNA synthesis of proliferating cells was detected by incorporation of radiolabelled tritium thymidine (3HT) and counting at a beta counter. Based on these raw data the relative proliferation response in relation to cells cultured in the absence of test compound (100% control) was calculated. IC50 values of proliferation suppression were assessed by computer-assisted graphical evaluation.

T1 sequence (P27487 whole entry): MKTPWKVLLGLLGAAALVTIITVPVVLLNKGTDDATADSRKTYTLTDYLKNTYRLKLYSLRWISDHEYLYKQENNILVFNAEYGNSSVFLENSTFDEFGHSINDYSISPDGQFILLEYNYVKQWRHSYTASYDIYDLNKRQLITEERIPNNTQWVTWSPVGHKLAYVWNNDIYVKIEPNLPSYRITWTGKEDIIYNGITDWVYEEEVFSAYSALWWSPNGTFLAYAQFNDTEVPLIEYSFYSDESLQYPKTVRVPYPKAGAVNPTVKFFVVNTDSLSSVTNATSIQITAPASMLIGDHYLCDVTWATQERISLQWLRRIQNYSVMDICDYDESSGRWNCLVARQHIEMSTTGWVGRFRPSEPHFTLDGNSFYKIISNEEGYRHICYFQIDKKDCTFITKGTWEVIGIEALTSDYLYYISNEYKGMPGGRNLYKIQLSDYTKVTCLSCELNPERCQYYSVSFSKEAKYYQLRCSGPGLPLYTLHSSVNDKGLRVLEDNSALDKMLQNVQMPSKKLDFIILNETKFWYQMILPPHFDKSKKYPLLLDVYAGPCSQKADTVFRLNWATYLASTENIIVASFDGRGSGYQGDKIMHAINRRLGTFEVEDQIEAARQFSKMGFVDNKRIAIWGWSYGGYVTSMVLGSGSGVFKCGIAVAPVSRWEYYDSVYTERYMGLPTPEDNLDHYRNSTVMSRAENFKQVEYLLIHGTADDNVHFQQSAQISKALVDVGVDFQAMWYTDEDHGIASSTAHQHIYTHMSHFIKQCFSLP
T2 sequence (P15144 whole entry): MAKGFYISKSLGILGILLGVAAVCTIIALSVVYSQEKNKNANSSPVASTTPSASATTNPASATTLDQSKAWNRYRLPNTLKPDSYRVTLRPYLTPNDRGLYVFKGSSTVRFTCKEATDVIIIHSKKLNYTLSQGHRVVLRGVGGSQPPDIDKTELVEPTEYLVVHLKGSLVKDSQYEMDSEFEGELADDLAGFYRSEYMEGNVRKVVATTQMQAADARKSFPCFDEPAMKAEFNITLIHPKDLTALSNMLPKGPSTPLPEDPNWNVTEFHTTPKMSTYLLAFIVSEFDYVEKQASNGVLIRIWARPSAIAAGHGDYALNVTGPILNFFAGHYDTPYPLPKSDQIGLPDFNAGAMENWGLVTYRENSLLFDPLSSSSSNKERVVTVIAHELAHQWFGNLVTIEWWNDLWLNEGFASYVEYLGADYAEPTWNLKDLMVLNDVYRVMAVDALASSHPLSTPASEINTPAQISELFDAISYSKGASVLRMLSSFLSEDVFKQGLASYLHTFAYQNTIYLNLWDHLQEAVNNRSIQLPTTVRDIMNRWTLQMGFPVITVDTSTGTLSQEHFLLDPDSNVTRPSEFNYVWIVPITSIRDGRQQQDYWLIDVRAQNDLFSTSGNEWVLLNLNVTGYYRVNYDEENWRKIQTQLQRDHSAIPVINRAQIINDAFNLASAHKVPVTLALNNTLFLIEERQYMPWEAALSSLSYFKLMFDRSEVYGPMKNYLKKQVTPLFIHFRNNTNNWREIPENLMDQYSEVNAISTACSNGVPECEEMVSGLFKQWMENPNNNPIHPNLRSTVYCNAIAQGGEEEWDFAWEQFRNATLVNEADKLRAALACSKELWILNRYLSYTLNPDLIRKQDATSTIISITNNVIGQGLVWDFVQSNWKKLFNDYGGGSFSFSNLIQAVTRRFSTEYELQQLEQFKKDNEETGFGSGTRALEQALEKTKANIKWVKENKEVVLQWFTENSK
T3 sequence (P55786 whole entry): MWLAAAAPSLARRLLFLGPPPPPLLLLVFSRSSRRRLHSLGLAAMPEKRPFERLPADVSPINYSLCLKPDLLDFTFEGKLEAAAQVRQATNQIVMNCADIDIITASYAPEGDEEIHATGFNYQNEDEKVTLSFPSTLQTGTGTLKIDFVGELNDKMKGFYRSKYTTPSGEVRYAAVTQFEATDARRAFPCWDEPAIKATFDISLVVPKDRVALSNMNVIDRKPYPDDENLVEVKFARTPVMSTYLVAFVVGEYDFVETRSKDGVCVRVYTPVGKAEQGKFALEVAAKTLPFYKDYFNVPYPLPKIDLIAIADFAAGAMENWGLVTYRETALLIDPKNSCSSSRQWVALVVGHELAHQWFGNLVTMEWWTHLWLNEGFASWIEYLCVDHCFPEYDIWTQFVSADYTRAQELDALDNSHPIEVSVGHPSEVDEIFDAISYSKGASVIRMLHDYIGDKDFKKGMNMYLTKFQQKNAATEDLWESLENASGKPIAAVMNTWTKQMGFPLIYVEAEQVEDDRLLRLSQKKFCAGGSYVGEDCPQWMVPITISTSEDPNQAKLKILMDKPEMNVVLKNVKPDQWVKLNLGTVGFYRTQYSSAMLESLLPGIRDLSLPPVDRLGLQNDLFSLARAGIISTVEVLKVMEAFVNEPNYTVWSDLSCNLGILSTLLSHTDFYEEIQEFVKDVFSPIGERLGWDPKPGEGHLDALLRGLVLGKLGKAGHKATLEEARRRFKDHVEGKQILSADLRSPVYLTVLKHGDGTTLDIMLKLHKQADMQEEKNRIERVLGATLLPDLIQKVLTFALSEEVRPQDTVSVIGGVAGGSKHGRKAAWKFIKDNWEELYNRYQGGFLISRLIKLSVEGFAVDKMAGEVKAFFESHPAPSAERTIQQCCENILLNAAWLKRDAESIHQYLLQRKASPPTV

meas. IC50 (DPIV) [1] | meas. IC50 (APN) [2] | meas. IC50 (DP8/9) [3] | meas. IC50 (cAAP) [4] | IC50 (T lymphocytes (T cells); Homo sapiens, T-cell, 48 h) [µM] | IC50 [4] [µM] | IC50 ([2]; read-out: meas. IC50 (APN)) [µM] | SMILES | IC50 (NHEK cells; Homo sapiens, NHEK, 48 h) [µM] | IC50 (SZ95 cells; Homo sapiens) [µM] | IC50 (T lymphocytes (T cells); PHA-stimulated human T cells, 48 hours) [µM] | IC50 (NHEK cells; 48 hours) [µM] | IC50 (SZ95 cells) [µM] | IC50 (T lymphocytes (T cells); T-cell, PHA-stimulated human T cells, 48 hours) [µM] | IC50 (NHEK cells; Homo sapiens, 48 hours) [µM]
no in- hibition | no in- hibition | no in- hibition | no in- hibition | 122 |  |  | CC(C)(CNC(=O)CC(Cc1cc(F)ccc1F)NC(=O)OC(C)(C)C)CNC(=O)C(OC(=O)C(C)(C)C)C(COCc1ccccc1)NC(=O)OC(C)(C)C (centres unmarked) [Compound C19.019] | ≥ 131 | 70.6 |  |  |  |  | 
no in- hibition | no in- hibition | no in- hibition |  | 12.2 | 0.51 |  | CCCCCC(=O)NC(CC(=O)NCC(C)(C)CNC(=O)C(O)C(COCc1ccccc1)NC(=O)CCCCC)Cc1cc(F)ccc1F (centres unmarked) [Compound C19.012] | 17.5 | 28.6 |  |  |  |  | 
no in- hibition | no in- hibition | no in- hibition |  | 54.1 | 1 |  | CC(C)(C)OC(=O)NC(CCCCNC(=O)C(S)C(Cc1ccccc1)NC(=O)OC(C)(C)C)C(=O)N1CCSC1 (centres unmarked) [Compound C22.002] | 85.2 | ≥ 200 |  |  |  |  | 
no in- hibition | no in- hibition | no in- hibition | no in- hibition | 168 |  |  | CCCCCCCCCCCCCC(=O)NC(CC(=O)NCC(C)(C)CNC(=O)C(O)C(COCc1ccccc1)NC(=O)CCCCCCCCCCCCC)Cc1cc(F)ccc1F (centres unmarked) [Compound C19.011] | ≥ 110 | ≥ 155 |  |  |  |  | 
no in- hibition | no in- hibition | no in- hibition | no in- hibition | 8 |  |  | CC(C)(C)OC(=O)NC(CNC(=O)c1cccc(NC(=O)C(O)C(COCc2ccccc2)NC(=O)OC(C)(C)C)c1)Cc1cc(F)ccc1F (centres unmarked) [Compound C19.015] | 15.9 | 5.75 |  |  |  |  | 
no in- hibition | no in- hibition | no in- hibition |  | 11.5 | 5.7 |  | CCCC(=O)OC(C(=O)Nc1cccc(C(=O)NCC(Cc2cc(F)ccc2F)NC(=O)OC(C)(C)C)c1)C(COCc1ccccc1)NC(=O)OC(C)(C)C (centres unmarked) [Compound C19.005] | 3.65 | 10.7 |  |  |  |  | 
no in- hibition |  | no in- hibition |  | 33.9 | 3.4 | 5.9 | CCOC(=O)NC(CC(=O)NCC(C)(C)CNC(=O)C(O)C(COCc1ccccc1)NC(=O)OCC)Cc1cc(F)ccc1F (centres unmarked) [Compound C19.009] | 100 | 59.1 |  |  |  |  | 
No in- hibition | no in- hibition | no in- hibition | no in- hibition | 5.2 |  |  | CC(C)(CNC(=O)CC(Cc1cc(F)ccc1F)NC(=O)OCc1ccccc1)CNC(=O)C(O)C(COCc1ccccc1)NC(=O)OC(C)(C)C (centres unmarked) [Compound C19.027] | 42.1 | 8.53 |  |  |  |  | 
no in- hibition | no in- hibition | no in- hibition | no in- hibition | 12 |  |  | CC(C)(C)OC(=O)NC(CCCCNC(=O)c1cccc(NC(=O)C(O)C(Cc2ccccc2)NC(=O)OC(C)(C)C)c1)C(=O)N1CCSC1 (centres unmarked) [Compound C21.004] | 13.9 | 19.4 |  |  |  |  | 
no in- hibition | no in- hibition | no in- hibition | no in- hibition | 19.8 |  |  | CCCCCC(=O)NC(CC(=O)NCC(C)(C)CNC(=O)C(OC(=O)CCCCC)C(COCc1ccccc1)NC(=O)CCCCC)Cc1cc(F)ccc1F (centres unmarked) [Compound C19.014] | 2.97 | ≥ 149 |  |  |  |  | 

SMILES | meas. IC50 (DPIV) [1] | meas. IC50 (APN) [2] | meas. IC50 (DP8/9) [3] | meas. IC50 (cAAP) [4] | IC50 (T lymphocytes (T cells); Homo sapiens, T-cell, 48 h) [µM] | IC50 [4] [µM] | IC50 ([2]; read-out: meas. IC50 (APN)) [µM] | IC50 (NHEK cells; Homo sapiens, NHEK, 48 h) [µM] | IC50 (SZ95 cells; Homo sapiens) [µM] | IC50 (T lymphocytes (T cells); PHA-stimulated human T cells, 48 hours) [µM] | IC50 (NHEK cells; 48 hours) [µM] | IC50 (SZ95 cells) [µM] | IC50 (T lymphocytes (T cells); T-cell, PHA-stimulated human T cells, 48 hours) [µM] | IC50 (NHEK cells; Homo sapiens, 48 hours) [µM]
CC(C)(CNC(=O)CC(Cc1cc(F)ccc1F)NC(=O)OC(C)(C)C)CNC(=O)C(O)C(COCc1ccccc1)NC(=O)OC(C)(C)C (centres unmarked) [Compound C19.024] | No in- hibition | no in- hibition | no in- hibition | no in- hibition |  |  |  |  |  | 11.4 | 21.1 | 13.3 |  | 
CC(C)(CNC(=O)CC(Cc1cc(F)ccc1F)NC(=O)OCc1ccccc1)CNC(=O)C(O)C(COCc1ccccc1)NC(=O)OCc1ccccc1 (centres unmarked) [Compound C19.008] | no in- hibition | no in- hibition | no in- hibition |  | 5.7 | 5.8 |  | 6.77 | 8.6 |  |  |  |  | 
CC(C)(CNC(=O)CC(Cc1cc(F)ccc1F)Nc1ccc([N+](=O)[O-])c2nonc12)CNC(=O)C(O)C(COCc1ccccc1)Nc1ccc([N+](=O)[O-])c2nonc12 (centres unmarked) [Compound C19.030] | No in- hibition | no in- hibition | no in- hibition | no in- hibition |  |  |  |  | 29.7 |  |  |  | 18.2 | 7.55
CC(C)[C@@H]1CC[C@@H](C)CC1OC(=O)CC(Cc1cc(F)ccc1F)NC(=O)OC(C)(C)C (some centres unmarked) [Compound C-122] | no in- hibition | no in- hibition | no in- hibition | no in- hibition | 5.83 |  |  | 69.4 | 65.2 |  |  |  |  | 
